Measurements published in ChEMBL document CHEMBL5579818, “Identification of 3-(9H-carbazol-9-yl)-2-(1,3-dioxoisoindolin-2-yl)propanoic acids as promising DNMT1 inhibitors” (Eur J Med Chem, 2024).
Active and inactive are the calls of the source. The rule behind the calls is not given here.

Experiments:
A2780 [1] = assay: Antiproliferative activity against human A2780 cells at 100 uM incubated for 48 hrs by MTT assay; assay type: functional
[2] = biological target: T1, DNA (cytosine-5)-methyltransferase 1 (Homo sapiens, UniProt P26358); assay: Inhibition of human DNMT1 at 500 uM relative to control
SiHa [3] = assay: Antiproliferative activity against human SiHa cells at 100 uM incubated for 48 hrs by MTT assay; assay type: functional
[4] = biological target: T1, DNA (cytosine-5)-methyltransferase 1; assay: Binding affinity to human DNMT1 expressed in Escherichia coli assessed as response unit at 10 uM by SPR analysis
[5] = biological target: T1, DNA (cytosine-5)-methyltransferase 1; assay: Inhibition of DNMT1 (unknown origin) at 250 uM using semi-methylated DNA substrate preincubated for 15 mins followed by substrate and [3H-SAM] addition and measured after 60 mins by microbeta scintillation counting assay relative to control; conditions: time 75.0 min
K562 [6] = assay: Antiproliferative activity against human K562 cells at 100 uM incubated for 48 hrs by MTT assay; assay type: functional
HeLa [7] = assay: Antiproliferative activity against human HeLa cells at 100 uM incubated for 48 hrs by MTT assay; assay type: functional
[8] = biological target: T1, DNA (cytosine-5)-methyltransferase 1; assay: Inhibition of DNMT1 (unknown origin) using semi-methylated DNA substrate preincubated for 15 mins followed by substrate and [3H-SAM] addition and measured after 60 mins by microbeta scintillation counting assay
[9] = biological target: T1, DNA (cytosine-5)-methyltransferase 1; assay: Binding affinity to human DNMT1 expressed in Escherichia coli assessed as binding constant by SPR analysis
K562 [10] = assay: Induction of apoptosis in human K562 cells assessed as late apoptotic cells at 40 uM incubated for 48 hrs by Annexin-V/PI staining based flow cytometry assay (reference value: 3.73%); assay type: functional
K562 [11] = assay: Induction of cell cycle arrest in human K562 cells assessed as S phase cells at 10 uM incubated for 48 hrs by PI staining based flow cytometry assay (reference value: 24.10 to 26.83%); assay type: functional
K562 [12] = assay: Induction of cell cycle arrest in human K562 cells assessed as G0-G1 phase cells at 10 uM incubated for 48 hrs by PI staining based flow cytometry assay (reference value: 33.58 to 35.82%); assay type: functional
K562 [13] = assay: Induction of cell cycle arrest in human K562 cells assessed as G0-G1 phase cells at 40 uM incubated for 48 hrs by PI staining based flow cytometry assay (reference value: 33.58 to 35.82%); assay type: functional
SiHa [14] = assay: Antiproliferative activity against human SiHa cells incubated for 48 hrs by MTT assay; assay type: functional, cell-based
K562 [15] = assay: Induction of apoptosis in human K562 cells assessed as necrotic cells at 40 uM incubated for 48 hrs by Annexin-V/PI staining based flow cytometry assay (reference value: 0.34%); assay type: functional
K562 [16] = assay: Induction of cell cycle arrest in human K562 cells assessed as G2/M phase cells at 10 uM incubated for 48 hrs by PI staining based flow cytometry assay (reference value: 37.35 to 45.32%); assay type: functional
HeLa [17] = assay: Antiproliferative activity against human HeLa cells incubated for 48 hrs by MTT assay; assay type: functional, cell-based
K562 [18] = assay: Induction of cell cycle arrest in human K562 cells assessed as G2/M phase cells at 40 uM incubated for 48 hrs by PI staining based flow cytometry assay (reference value: 37.35 to 45.32%); assay type: functional
K562 [19] = assay: Induction of cell cycle arrest in human K562 cells assessed as S phase cells at 40 uM incubated for 48 hrs by PI staining based flow cytometry assay (reference value: 24.10 to 26.83%); assay type: functional
K562 [20] = assay: Upregulation of TRAIL-R2/Dr5 expression in human K562 cells; assay type: functional, cell-based
A2780 [21] = assay: Antiproliferative activity against human A2780 cells incubated for 48 hrs by MTT assay; assay type: functional, cell-based; conditions: A2780, 48 h
K562 [22] = assay: Antiproliferative activity against human K562 cells incubated for 48 hrs by MTT assay; assay type: functional, cell-based; conditions: K562, 48 h
K562 [23] = assay: Induction of cell cycle arrest in human K562 cells assessed as G0-G1 phase cells at 20 uM incubated for 48 hrs by PI staining based flow cytometry assay (reference value: 33.58 to 35.82%); assay type: functional
K562 [24] = assay: Induction of apoptosis in human K562 cells assessed as late apoptotic cells at 10 uM incubated for 48 hrs by Annexin-V/PI staining based flow cytometry assay (reference value: 3.73%); assay type: functional
K562 [25] = assay: Induction of apoptosis in human K562 cells assessed as late apoptotic cells at 20 uM incubated for 48 hrs by Annexin-V/PI staining based flow cytometry assay (reference value: 3.73%); assay type: functional
K562 [26] = assay: Induction of cell cycle arrest in human K562 cells assessed as G2/M phase cells at 20 uM incubated for 48 hrs by PI staining based flow cytometry assay (reference value: 37.35 to 45.32%); assay type: functional
K562 [27] = assay: Induction of apoptosis in human K562 cells assessed as necrotic cells at 10 uM incubated for 48 hrs by Annexin-V/PI staining based flow cytometry assay (reference value: 0.34%); assay type: functional
K562 [28] = assay: Upregulation of TNFR-1 expression in human K562 cells; assay type: functional, cell-based
K562 [29] = assay: Induction of apoptosis in human K562 cells assessed as early apoptotic cells at 20 uM incubated for 48 hrs by Annexin-V/PI staining based flow cytometry assay (reference value: 3.18%); assay type: functional
K562 [30] = assay: Induction of apoptosis in human K562 cells assessed as viable cells at 40 uM incubated for 48 hrs by Annexin-V/PI staining based flow cytometry assay (reference value: 92.12%); assay type: functional; conditions: read-out: Activity
K562 [31] = assay: Induction of apoptosis in human K562 cells assessed as viable cells at 10 uM incubated for 48 hrs by Annexin-V/PI staining based flow cytometry assay (reference value: 92.12%); assay type: functional; conditions: read-out: Activity
K562 [32] = assay: Induction of apoptosis in human K562 cells assessed as necrotic cells at 20 uM incubated for 48 hrs by Annexin-V/PI staining based flow cytometry assay (reference value: 0.34%); assay type: functional
K562 [33] = assay: Induction of apoptosis in human K562 cells assessed as early apoptotic cells at 40 uM incubated for 48 hrs by Annexin-V/PI staining based flow cytometry assay (reference value: 3.18%); assay type: functional
K562 [34] = assay: Upregulation of CDKN1A/P21 expression in human K562 cells; assay type: functional, cell-based
K562 [35] = assay: Induction of apoptosis in human K562 cells assessed as viable cells at 20 uM incubated for 48 hrs by Annexin-V/PI staining based flow cytometry assay (reference value: 92.12%); assay type: functional; conditions: read-out: Activity
K562 [36] = assay: Induction of apoptosis in human K562 cells assessed as early apoptotic cells at 10 uM incubated for 48 hrs by Annexin-V/PI staining based flow cytometry assay (reference value: 3.18%); assay type: functional
K562 [37] = assay: Induction of cell cycle arrest in human K562 cells assessed as S phase cells at 20 uM incubated for 48 hrs by PI staining based flow cytometry assay (reference value: 24.10 to 26.83%); assay type: functional
[38] = biological target: T1, DNA (cytosine-5)-methyltransferase 1; assay: Binding affinity to human DNMT1 expressed in Escherichia coli assessed as equilibrium dissociation constant by SPR analysis

T1 sequence (P26358 whole entry): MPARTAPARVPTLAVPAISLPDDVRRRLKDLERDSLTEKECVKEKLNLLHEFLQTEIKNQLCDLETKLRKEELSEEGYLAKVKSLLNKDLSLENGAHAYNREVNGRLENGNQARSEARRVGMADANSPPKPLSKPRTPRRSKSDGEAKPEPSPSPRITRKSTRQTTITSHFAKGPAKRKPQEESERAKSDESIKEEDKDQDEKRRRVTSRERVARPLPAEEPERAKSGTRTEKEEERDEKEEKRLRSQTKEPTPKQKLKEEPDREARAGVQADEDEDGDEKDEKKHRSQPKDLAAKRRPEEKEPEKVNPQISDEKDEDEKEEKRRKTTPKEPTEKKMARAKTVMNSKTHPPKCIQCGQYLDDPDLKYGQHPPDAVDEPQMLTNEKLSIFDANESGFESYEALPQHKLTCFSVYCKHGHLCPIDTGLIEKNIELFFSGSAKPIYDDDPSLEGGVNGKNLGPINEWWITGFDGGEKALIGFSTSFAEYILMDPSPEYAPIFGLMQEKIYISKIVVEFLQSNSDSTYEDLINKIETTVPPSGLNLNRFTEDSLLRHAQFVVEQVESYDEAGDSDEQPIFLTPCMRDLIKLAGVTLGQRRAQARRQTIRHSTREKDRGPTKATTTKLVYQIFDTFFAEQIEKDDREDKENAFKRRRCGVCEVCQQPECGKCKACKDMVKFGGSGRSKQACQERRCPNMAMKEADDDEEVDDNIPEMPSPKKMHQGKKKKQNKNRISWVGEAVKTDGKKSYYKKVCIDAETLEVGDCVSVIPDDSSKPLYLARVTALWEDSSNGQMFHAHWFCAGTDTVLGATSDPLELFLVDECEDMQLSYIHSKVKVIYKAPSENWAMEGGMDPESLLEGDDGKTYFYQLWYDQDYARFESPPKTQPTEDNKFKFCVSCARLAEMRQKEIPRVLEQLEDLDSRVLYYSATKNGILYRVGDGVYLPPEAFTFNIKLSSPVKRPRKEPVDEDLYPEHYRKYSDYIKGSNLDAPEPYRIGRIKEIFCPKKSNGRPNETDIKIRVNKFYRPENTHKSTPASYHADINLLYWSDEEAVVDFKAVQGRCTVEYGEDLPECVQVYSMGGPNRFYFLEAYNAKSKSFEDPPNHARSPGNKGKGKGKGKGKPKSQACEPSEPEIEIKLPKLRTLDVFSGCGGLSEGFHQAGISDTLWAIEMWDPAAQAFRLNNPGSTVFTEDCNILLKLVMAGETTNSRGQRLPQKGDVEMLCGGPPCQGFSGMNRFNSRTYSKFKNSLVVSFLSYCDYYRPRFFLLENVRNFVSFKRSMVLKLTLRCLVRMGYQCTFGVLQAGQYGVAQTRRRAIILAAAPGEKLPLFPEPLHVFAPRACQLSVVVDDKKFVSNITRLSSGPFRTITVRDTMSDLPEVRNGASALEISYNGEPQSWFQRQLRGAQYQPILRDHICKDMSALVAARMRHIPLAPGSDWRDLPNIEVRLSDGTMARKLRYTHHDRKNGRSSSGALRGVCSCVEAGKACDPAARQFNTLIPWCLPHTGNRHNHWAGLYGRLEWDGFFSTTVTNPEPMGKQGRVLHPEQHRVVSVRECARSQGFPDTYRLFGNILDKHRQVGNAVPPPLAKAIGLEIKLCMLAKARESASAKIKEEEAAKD

**Q.** Which Activity (A2780 [1]) does the source give for O=C(O)C(Cn1c2ccccc2c2ccccc21)N1C(=O)c2ccccc2C1=O (racemic) here?
**A.** The Activity was less than 5%.

**Q.** What about the inhibition [2] of the same compound?
**A.** Its inhibition is less than 10%.

**Q.** What about the Activity (SiHa [3]) of the same compound?
**A.** The Activity was less than 5%.

**Q.** And the Activity [4]?
**A.** The Activity was 25.1 RU.

**Q.** And the inhibition [5]?
**A.** The inhibition was less than 50%.

**Q.** And the Activity (K562 [6])?
**A.** Its Activity is less than 5%.

**Q.** What about the Activity (HeLa [7]) of the same compound?
**A.** The Activity was less than 5%.

**Q.** With O=C(O)C(Cn1c2ccc(Br)cc2c2cc(Br)ccc21)N1C(=O)c2ccccc2C1=O (stereo in doubt; 7n-2) as the compound, how does the IC50 [8] read?
**A.** Its IC50 is 38.2 µM.

**Q.** Which Activity (A2780 [1]) does the source give for O=C(O)C(Cn1c2ccccc2c2cc(Br)ccc21)N1C(=O)c2ccccc2C1=O (racemic) here?
**A.** Its Activity is less than 5%.

**Q.** And the Activity (SiHa [3])?
**A.** The Activity was less than 5%.

**Q.** What about the inhibition [5] of the same compound?
**A.** The inhibition was less than 50%.

**Q.** And the Activity (K562 [6])?
**A.** Its Activity is less than 5%.

**Q.** And the Activity (HeLa [7])?
**A.** Its Activity is less than 5%.

**Q.** For O=C(O)C(Cn1c2ccccc2c2cc(OCC3CO3)ccc21)N1C(=O)c2ccccc2C1=O (racemic), which Activity (A2780 [1]) is on record?
**A.** The Activity was less than 5%.

**Q.** What about the Activity (SiHa [3]) of the same compound?
**A.** Its Activity is less than 5%.

**Q.** What about the inhibition [5] of the same compound?
**A.** The inhibition was less than 50%.

**Q.** And the Activity (K562 [6])?
**A.** The Activity was less than 5%.

**Q.** And the Activity (HeLa [7])?
**A.** Its Activity is less than 5%.

**Q.** Which IC50 [8] does the source give for O=C(O)C(Cn1c2ccc(I)cc2c2cc(I)ccc21)N1C(=O)c2ccccc2C1=O (stereo in doubt; 7o-2) here?
**A.** Its IC50 is 43 µM.

**Q.** Which results are given for O=C(O)C(Cn1c2ccccc2c2cc(I)ccc21)N1C(=O)c2ccccc2C1=O (racemic)?
**A.** Activity (A2780 [1]): <5%; Activity (SiHa [3]): <5%; inhibition [5]: < 50%; Activity (K562 [6]): <5%; Activity (HeLa [7]): <5%

**Q.** Which results are given for O=C(O)C(Cn1c2ccc(I)cc2c2cc(I)ccc21)N1C(=O)c2ccccc2C1=O (racemic)?
**A.** Ka [9]: 239000 M⁻¹ s⁻¹; Activity [4]: 57.9 RU; inhibition [5]: > 75%

**Q.** What does the source list for CC(C)(C)c1ccc2c(c1)c1cc(C(C)(C)C)ccc1n2C[C@@H](C(=O)O)N1C(=O)c2ccccc2C1=O?
**A.** Activity (K562 [10]): 94.09%; Activity (K562 [11]): 26.12%; Activity (K562 [12]): 34.61%; Activity (K562 [13]): 61.14%; IC50 (SiHa [14]): 25.6 µM; Activity (K562 [15]): 1.47%; IC50 [8]: 8.15 µM; Activity (K562 [16]): 38.67%; IC50 (HeLa [17]): 66.9 µM; Activity (K562 [18]): 16.56%; Activity (K562 [19]): 22.3%; Activity (K562 [20]): Active; IC50 (A2780 [21]): 32.9 µM; IC50 (K562 [22]): 15.8 µM; Activity (K562 [23]): 54.77%; Activity (K562 [24]): 2.07%; Activity (K562 [25]): 6.5%; Activity (K562 [26]): 23.67%; Activity (K562 [27]): 0.37%; Activity (K562 [28]): Active; Activity (K562 [29]): 2.78%; viability at 40 µM (K562 [30]): 3.07%; viability at 10 µM (K562 [31]): 86.2%; Activity (K562 [32]): 0.56%; Activity (K562 [33]): 1.36%; Activity (K562 [34]): Active; viability at 20 µM (K562 [35]): 90.2%; Activity (K562 [36]): 1.39%; Activity (K562 [37]): 21.5%; Kd [38]: 0.679 µM

**Q.** Which Ka [9] does the source give for O=C(O)C(Cn1c2ccc(Br)cc2c2cc(Br)ccc21)N1C(=O)c2ccccc2C1=O (racemic) here?
**A.** The Ka was 34000 M⁻¹ s⁻¹.

**Q.** What about the Activity [4] of the same compound?
**A.** Its Activity is “Active”.

**Q.** And the inhibition [5]?
**A.** Its inhibition is greater than 75%.

**Q.** For CC(C)(C)c1ccc2c(c1)c1cc(C(C)(C)C)ccc1n2CC(C(=O)O)N1C(=O)c2ccccc2C1=O (racemic), which IC50 (SiHa [14]) is on record?
**A.** The IC50 was 43.3 µM.

**Q.** What about the Activity (A2780 [1]) of the same compound?
**A.** Its Activity is 98%.

**Q.** What about the IC50 (HeLa [17]) of the same compound?
**A.** Its IC50 is 60.5 µM.

**Q.** And the IC50 (A2780 [21])?
**A.** The IC50 was 36.6 µM.

**Q.** What about the IC50 (K562 [22]) of the same compound?
**A.** Its IC50 is 22.5 µM.

**Q.** And the Activity [4]?
**A.** Its Activity is 52.7 RU.

**Q.** What about the inhibition [5] of the same compound?
**A.** The inhibition was greater than 75%.

**Q.** What about the Activity (K562 [6]) of the same compound?
**A.** Its Activity is 99%.

**Q.** What about the Activity (HeLa [7]) of the same compound?
**A.** The Activity was 79%.

**Q.** And the Kd [38]?
**A.** Its Kd is 0.841 µM.
